From patent US5723299A, “Somatostatin receptors” (Arch Development Corporation, priority 1995, dated 1998)
Read-outs that look alike come from different tables or passages of the source.

Tests used:
hGPR81 (SSTR1) [1] = target: T1, hGPR81 (SSTR1) (Homo sapiens, UniProt P30872); experiment: Ca^2+ efflux in oocytes injected with hGPR81 RNA; type: cell-based; conditions: laevis oocytes injected with in vitro transcribed RNA
T1 construct: in vitro transcribed RNA injected into Xenopus laevis oocytes
Procedure: (§1) Since the presence of a short cytoplasmic loop connecting transmembrane segments M5-M6 is a feature of G protein-coupled receptors that bind peptide hormones and neuropeptides (E. M. Ross, 1990), peptides known to regulate hormone secretion from pancreatic islets were tested as ligands for hGPR81. Initial attempts to identify the ligand for hGPR81 by injecting RNA transcribed in vitro into fenopus laevis oocytes (Kayano et al., 1990) and assessing changes in basal or stimulated cAMP levels in response to […] [calcitonin-gene-related peptide, gastric inhibitory polypeptide, glucagon, glucagon-like peptide 1-(7-36 amide), and vasoactive intestinal peptide], or Ca^2+ efflux (Williams et al., 1988) (angiotensin II, bombesin, cholecystokinin, and vasopressin) were unsuccessful. The binding of radiolabeled peptides (galanin, glucagon and somatostatin) to COS-7 cells transiently expressing hGPR81 was attempted, as well.

[2] = system: growth hormone, insulin, glucagon, gastric acid and pancreatic exocrine secretion; conditions: background, Brazeau et al., 1973, Wass, 1989, cited from earlier work
[3] = system: 58 to 60-kDa somatostatin receptor protein; conditions: background; rat brain and AtT-20 cells; cited from earlier work
hGPR81 (SSTR1) [4] = target: T1, hGPR81 (SSTR1); experiment: Changes in basal or stimulated cAMP levels in oocytes injected with hGPR81 RNA; type: cell-based; conditions: laevis oocytes injected with in vitro transcribed RNA
Procedure: as §1

[5] = system: somatostatin receptor proteins (58-kDa, 42-kDa, 27-kDa); conditions: background; AtT-20 and GH3 cells; cited from earlier work

T1 sequence (P30872 whole entry): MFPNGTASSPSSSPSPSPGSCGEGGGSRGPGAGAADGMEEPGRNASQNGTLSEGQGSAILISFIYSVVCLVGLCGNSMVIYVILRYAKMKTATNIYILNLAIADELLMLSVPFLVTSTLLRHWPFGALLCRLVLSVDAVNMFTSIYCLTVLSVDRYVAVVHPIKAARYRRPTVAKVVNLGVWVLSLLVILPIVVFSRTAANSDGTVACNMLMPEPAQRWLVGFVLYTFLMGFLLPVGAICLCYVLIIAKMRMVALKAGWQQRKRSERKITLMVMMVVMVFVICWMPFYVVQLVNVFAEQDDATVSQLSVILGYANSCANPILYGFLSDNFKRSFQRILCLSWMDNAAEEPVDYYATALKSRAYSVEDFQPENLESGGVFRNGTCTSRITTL

For bombesin, the “identification as ligand for hGPR81 by Ca^2+ efflux” value (“identification … by Ca^2+ efflux” for short) (hGPR81 (SSTR1) [1]) was “unsuccessful”.

For “somatostatin-28: bioactive form of somatostatin derived via tissue-specific proteolytic processing of prosomatostatin (Bachem)”, the inhibition of secretion [2] is given as “more specific inhibitor of growth hormone, insulin and pancreatic exocrine secretion” and the “binding to 58 to 60-kDa receptor protein” value [3] is given as “high affinity and specificity”.

With “vasoactive intestinal peptide: peptide known to regulate hormone secretion from pancreatic islets” the “identification as ligand for hGPR81 by changes in basal or stimulated cAMP levels” value (hGPR81 (SSTR1) [4]) was “unsuccessful”.

In the case of somatostatin-14, the “inhibition of labeling of somatostatin receptor proteins” value [5] is given as “sensitive to inhibition”, the inhibition of secretion [2] is given as “relatively more selective for inhibition of glucagon and gastric acid secretion” and the inhibition of secretion ([2]; listed as Somatostatin) is given as “potent inhibitor of growth hormone secretion”. For the same compound, the “binding to 58 to 60-kDa receptor protein” value [3] was “high affinity and specificity”.

With NC(=O)CC[C@@H]1NC(=O)[C@H](Cc2ccccc2)NC(=O)[C@H](Cc2ccc(O)cc2)NC(=O)[C@@H](N)CSSC[C@@H](C(=O)N2CCC[C@H]2C(=O)N[C@@H](CCCN=C(N)N)C(=O)NCC(N)=O)NC(=O)[C@H](CC(N)=O)NC1=O [vasopressin] the “identification … by Ca^2+ efflux” value (hGPR81 (SSTR1) [1]) was “unsuccessful”.

With calcitonin-gene-related peptide the “identification as ligand for hGPR81 by changes in basal or stimulated cAMP levels” value (hGPR81 (SSTR1) [4]) was “unsuccessful”.

With “glucagon: peptide known to regulate hormone secretion from pancreatic islets” the “identification as ligand for hGPR81 by changes in basal or stimulated cAMP levels” value (hGPR81 (SSTR1) [4]) was “unsuccessful”.

In the case of Nc1nc2c(ncn2[C@@H]2O[C@H](COP(=O)(O)OP(=O)(O)OP(=O)(O)O)[C@@H](O)[C@H]2O)c(=O)[nH]1 [GTP], the “inhibition of labeling of somatostatin receptor proteins” value [5] is listed as “sensitive to inhibition”.

With “angiotensin II: peptide known to regulate hormone secretion from pancreatic islets (DRVYIHPF)” the “identification … by Ca^2+ efflux” value (hGPR81 (SSTR1) [1]) was “unsuccessful”.

In the case of glucagon-like peptide 1-(7-36 amide), the “identification as ligand for hGPR81 by changes in basal or stimulated cAMP levels” value (hGPR81 (SSTR1) [4]) is reported as “unsuccessful”.

With “gastric inhibitory polypeptide: peptide known to regulate hormone secretion from pancreatic islets” the “identification as ligand for hGPR81 by changes in basal or stimulated cAMP levels” value (hGPR81 (SSTR1) [4]) was “unsuccessful”.
